Assay results: patent publication US20090215783A1, “COMPOSITION FOR INDUCTION OR INHIBITION OF STEM CELL DIFFERENTIATION” (CHOONGWAE PHARMA CORPORATION, priority 2006, published 2009)

Experiments:
[1] = tested on: human bone marrow derived-mesenchymal stem cells (hBMMSC); experiment: Osteogenesis modulating activity assay by test compound alone (ALP activity); type: cell-based; conditions: Homo sapiens, 168 h; hBMMSC, 20 μM test compound alone, six to seven days; read-out: Osteogenesis: fold change of ALP activity compared with DMSO control
Protocol: Cell culture: Human bone marrow derived-mesenchymal stem cells (hBMMSC) were isolated from normal subjects.
Osteogenesis modulating activity assay by test compound alone: hBMMSC were cultivated in the culture medium and cells were seeded into 96-well culture plates and test compounds were dissolved in DMSO and diluted with culture media (final 0.01% DMSO) and added into the media (final concentration of test compound was 20 μM) and cultured in the CO2 incubator (37° C., 5% CO2). Culture medium was changed every two days with fresh one and compound was treated again whenever medium was changed. Six to seven days after incubation, Alkaline phosphatase activity of cell lysates was measured by colorimetry. For the determination of mineralization within the cells, Von Kossa staining or Alizarin Red S assay was performed 10-14 days after incubation.

[2] = tested on: Mouse embryonic stem (ES) cells, TC1; experiment: Cardiomyogenesis modulating activity assay (alpha-MHC promoter EGFP, embryoid bodies, FACS/fluorescence microscopy); type: cell-based; conditions: embryoid bodies treated for 5 days, FACS
Protocol: a. Cell culture: Mouse embryonic stem (ES) cells, TC1 derived from 129/S6 strain were cultured on irradiated feeder layer in the culture medium which is high-glucose DMEM (Gibco) BRL, Germany) supplemented with 15% FBS (Hyclone), 0.1 mM beta-mercaptoethanol, […] sodium pyruvate, 1 mM L-glutamine and 1× non-essential amino acids.
b. Establishment of alpha-MHC stably transformed ES cell line: A construct (FIG. 8) containing 1.8 kb promoter sequence of the mouse alpha-MHC gene between EcoRI and SalI sites of pEGFP-1 (Clontech Laboratories, Inc, CA, USA) was linearized at XhoI site, and was introduced into mouse ES cells, TC1, using the Gene Pulser II (BioRad, MA). A selection medium containing G418 was applied for two weeks from 24 hours after electroporation. The selected ES cell clones were harvested and expanded on the feeder cell layer. The green fluorescence-expressing clones when differentiated into cardiomyocytes were used in this experiment.
c. Cardiomyogenesis modulating activity assay: Embryoid body (EB) was formed by hanging drop culture using about a number of 600 (six hundred) ES cells for two days and it was further expanded by culturing in suspension condition on a Petri-dish for another two days. Then each EB was plated on a well of 96 well culture plates. Test compounds were dissolved in DMSO and diluted with culture media (final 0.05% DMSO) and EB was treated with test compound for 5 days. Culture medium was changed every three days after plating. Expression level of EGFP was measured with FACS (Beckman). For FACS analysis, differentiating cells were dissociated with trypsin. For the determination of the extent of differentiation, EB was observed and photographed with an inverted fluorescence microscope (Zeiss, Germany). Number of beating EBs was counted under the microscope and recorded once daily.

Structure (SMILES) | fold induction at 20 µM [1] | Cardiomyogenesis: fold change of EGFP expression level compared with DMSO control [2] [fold]
Cc1ccc(C[C@H]2C(=O)N(CCc3ccc(Cl)cc3)C[C@H]3N2C(=O)CN(Cc2ccccc2)N3C(=O)NCc2ccccc2)cc1 [#78] | 0.75 | 1.70
O=C1[C@H](CC2CCCCC2)N2C(=O)CN(Cc3ccccc3)N(C(=O)NCc3ccccc3)[C@H]2CN1CCc1ccc(Cl)cc1 [#79] | 0.58 | 1.67
O=C1[C@H](Cc2ccc(F)cc2)N2C(=O)CN(Cc3ccccc3)N(C(=O)NCc3ccccc3)[C@H]2CN1CCc1ccc(Cl)cc1 [#80] | 0.19 | 1.49
O=C1[C@H](Cc2ccc(F)c(F)c2)N2C(=O)CN(Cc3ccccc3)N(C(=O)NCc3ccccc3)C2CN1CCc1ccc(Cl)cc1 (stereo partly shown) [#81] | 1.84 | 0.81
C=CCN1CC(=O)N2[C@@H](Cc3ccc(OCc4ccccc4)cc3)C(=O)N(Cc3ccc(F)cc3)C[C@@H]2N1C(=O)NCc1ccccc1 [#83] | 0.36 | 2.02
C=CCN1CC(=O)N2[C@@H](Cc3ccc(C)cc3)C(=O)N(Cc3ccc(F)cc3)C[C@@H]2N1C(=O)NCc1ccccc1 [#84] | 0.69 | 1.32
C=CCN1CC(=O)N2[C@@H](Cc3ccc(F)cc3)C(=O)N(Cc3ccc(F)cc3)C[C@@H]2N1C(=O)NCc1ccccc1 [#85] | 0.62 | 1.65
C=CCN1CC(=O)N2[C@@H](CC(C)C)C(=O)N(CCc3ccccc3)C[C@@H]2N1C(=O)NCc1ccccc1 [#86] | 0.54 | 1.34
C=CCN1CC(=O)N2[C@@H](Cc3ccccc3)C(=O)N(CCc3ccccc3)C[C@@H]2N1C(=O)NCc1ccccc1 [#87] | 0.59 | 0.89
C=CCN1CC(=O)N2C(CC(=O)O)C(=O)N(CCc3ccccc3)C[C@@H]2N1C(=O)NCc1ccccc1 (stereo partly shown) [#88] | 0.64 | 1.34
C=CCN1CC(=O)N2C(CN(CCc3ccccc3)C(=O)[C@@H]2CCC(=O)O)N1C(=O)NCc1ccccc1 (stereo partly shown) [#89] | 1.16 | 1.26
C=CCN1CC(=O)N2[C@@H](c3ccccc3)C(=O)N(CCc3ccccc3)C[C@@H]2N1C(=O)NCc1ccccc1 [#90] | 0.51 | 2.10
C=CCOC(=O)NCCC[C@@H]1C(=O)N(CCc2ccccc2)C[C@H]2N1C(=O)CN(CC=C)N2C(=O)NCc1ccccc1 [#91] | 1.13 | 2.23
CCCN1CC(=O)N2C(Cc3ccc(O)cc3)C(=O)N(CCC(C)C)CC2N1C(=O)NCc1ccccc1 (stereo not shown) [#92] | 0.7 | 2.13
CCCN1CC(=O)N2C(CN(CCC(C)C)C(=O)[C@@H]2CC(C)C)N1C(=O)NCc1ccccc1 (stereo partly shown) [#93] | 0.63 | 0.57
CCCN1CC(=O)N2C(CC(=O)O)C(=O)N(CCC(C)C)C[C@H]2N1C(=O)NCc1ccccc1 (stereo partly shown) [#94] | 0.69 | 3.02

Structure (SMILES) | fold induction at 20 µM [1] | Cardiomyogenesis: fold change of EGFP expression level compared with DMSO control [2] [fold]
CCCN1CC(=O)N2C(CN(CCC(C)C)C(=O)[C@@H]2CCC(=O)O)N1C(=O)NCc1ccccc1 (stereo partly shown) [#95] | 1.19 | 2.22
CCCCNC(=O)N1[C@H]2CN(CCc3ccc(OC)cc3)C(=O)[C@H](Cc3ccc(O)cc3)N2C(=O)CN1Cc1ccc(C)cc1 [#96] | 0.77 | 0.54
CCCCNC(=O)N1[C@H]2CN(CCc3ccc(OC)cc3)C(=O)[C@H](CC(C)C)N2C(=O)CN1Cc1ccc(C)cc1 [#97] | 0.54 | 0.71
CCCCNC(=O)N1C2CN(CCc3ccc(OC)cc3)C(=O)[C@H](CC(=O)O)N2C(=O)CN1Cc1ccc(C)cc1 (stereo partly shown) [#98] | 0.26 | 3.34
CN1C(=O)N2[C@@H](Cc3ccc(O)cc3)C(=O)N(CCc3ccc(F)cc3)C[C@@H]2N1C(=O)NCc1ccccc1 [#99] | 0.46 | 1.74
CN1C(=O)N2[C@@H](Cc3ccc(O)cc3)C(=O)N(Cc3cccc4ccccc34)C[C@@H]2N1C(=O)NCc1ccccc1 [#100] | 1.11 | 1.35
CCC(C)[C@H]1C(=O)N(CC2CCCCC2)C[C@H]2N1C(=O)N(C)N2C(=O)NCc1ccccc1 (stereo partly shown) [#101] | 1.28 | 2.32
CCCC[C@H]1C(=O)N(CCc2ccc(OC)c(OC)c2)C[C@H]2N1C(=O)N(C)N2C(=O)NCc1ccccc1 [#102] | 1.61 | 1.01
CCC(C)[C@H]1C(=O)N(CCC(c2ccccc2)c2ccccc2)C[C@H]2N1C(=O)N(C)N2C(=O)NCc1ccccc1 (stereo partly shown) [#103] | 0.98 | 1.98
CCC(CC)N1CC2N(C(=O)N(C)N2C(=O)NCc2ccccc2)[C@@H](Cc2ccc(O)cc2)C1=O (stereo partly shown) [#104] | 1.42 | 0.62
CC(C)C[C@H]1C(=O)N(C2CCCCC2)C[C@H]2N1C(=O)N(C)N2C(=O)NCc1ccccc1 [#105] | 0.8 | 1.12
CC(C)[C@H]1C(=O)N(Cc2cccc(Br)c2)C[C@H]2N1C(=O)N(C)N2C(=O)NCc1ccccc1 [#106] | 0.37 | 1.25
CCCCOCCCN1C[C@H]2N(C(=O)N(C)N2C(=O)NCc2ccccc2)[C@@H](CCSC)C1=O [#107] | 0.66 | 0.59
CN1C(=O)N2C(CN(CCSCc3ccccc3)C(=O)[C@@H]2Cc2ccc(O)cc2)N1C(=O)NCc1ccccc1 (stereo partly shown) [#108] | 0.94 | 1.19
CCC(C)[C@H]1C(=O)N(Cc2cccc(Cl)c2)C[C@H]2N1C(=O)N(C)N2C(=O)NCc1ccccc1 (stereo partly shown) [#109] | 1 | 0.97
NC(=O)CC1C(=O)N(CCSCc2ccccc2)CC2N1C(=O)CN(Cc1ccc(F)cc1)N2C(=O)NCc1ccccc1 (stereo not shown) [#110] | 0.63 | 1.18
